test: in vitro; settings: human, hela cells, % viability

SMILES | viability at 28.5 h, 10 µM
O=C(Cc1c[nH]cn1)N1CCN(C(=O)c2ccco2)CC1 [CBK144448] | 91.9%
COc1ccc(-c2nnc(SCC(=O)NN)n2-c2ccccc2)cc1OC [CBK262264] | 112%
CCc1ccc(OC(C)c2nnc(SCC(=O)N3c4ccccc4Sc4ccccc43)n2C)cc1 (stereo not shown) [CBK268058] | 92.3%
CC(C)[C@@H](CO)n1c(=O)[nH]c2ncc(-c3ccco3)nc21 [CBK065018] | 106%
Cc1ccccc1-c1noc(CSc2nnc(-c3ccncc3)n2-c2ccc(F)cc2)n1 [CBK269089] | 96.8%
CCOC(=O)C1(C2CCCCC2)CCN(C(=O)c2ccc(OC(F)(F)F)cc2)CC1 [CBK136921] | 96.2%
O=C(CSc1ncn(-c2ccccc2)n1)Nc1ccc(F)c(Cl)c1 [CBK267313] | 94.4%
COc1cccc(C(=O)NCC(C)(C)SCc2ccc(F)cc2)c1 [CBK022322] | 111%
O=C(Nc1ccc(-c2ccccc2)cc1)c1cccc(S(=O)(=O)NCC2CCCO2)c1 (stereo not shown) [CBK296994] | 95.7%
O=C1NCCNC(=O)C2(C/C=C/COc3ccccc31)CCN(C(=O)c1cncs1)CC2 [CBK292023] | 95.3%
CC(=O)NCC1CCCN(Cc2c[nH]nc2-c2c(F)cccc2F)C1 (stereo not shown) [CBK306382] | 99.6%
CC(=O)N1CC[C@H](c2nc3cccc(C(N)=O)c3[nH]2)C1 [CBK289415] | 98.3%
CC(O)c1cc2c(cc1NC(=O)c1cnn3c1NC(c1ccco1)CC3C(F)(F)F)OCO2 (stereo not shown) [CBK268850] | 83.3%
c1ccc(OCCN2CCCN(c3cc(OCC4COc5ccccc5O4)ncn3)CC2)cc1 (stereo not shown) [CBK083395T] | 87.7%
COc1cc2[nH]c(=S)n3nc(-c4ccncc4)nc3c2cc1OC [CBK288559] | 104%
CC(C)N1CCC(CNC(=O)Cn2ccc3ccc(F)cc32)CC1 [CBK282571] | 89.9%
O=C1CC(c2ccccc2)c2c(n3ccsc3nc2=O)N1 (stereo not shown) [CBK287923] | 98.7%
CN1CCN(C(=O)c2ccc(-c3cnc(OCC4CCN(C(=O)OC(C)(C)C)CC4)nc3)cn2)CC1 [CBK170021] | 93.5%
Cc1ccc2c(c1)cc(C)c1nn(CC(=O)NC3CC3)c(=O)n12 [CBK283873] | 99.2%
Cc1scc(C(=O)NCc2ccccn2)c1-c1ccccc1 [CBK268107] | 89%
CC(=O)Nc1ccc(S(=O)(=O)Nc2ccnc(N3CCNCC3)n2)cc1 [CBK000363C] | 92.5%
COc1cc(C2C3=C(CC(C)(C)CC3=O)OC3=C2C(=O)CC(C)(C)C3)ccc1OCC(=O)O [CBK262379] | 94.8%

SMILES | viability at 28.5 h, 10 µM
O=C(Nc1ccncc1)c1ccc(CNS(=O)(=O)c2cccc(C(F)(F)F)c2)cc1 [CBK267181] | 88.5%
Cc1ccc(SCCCCn2cnc3ccccc32)cc1 [CBK267801G] | 103%
COC(=O)Cn1c(-c2ccc(OC)cc2)cc2cccnc21 [CBK282268] | 82.7%
CN(C)Cc1ccc(C(=O)N2CCCC2(C)C(=O)N(C)C)cc1 (stereo not shown) [CBK281955] | 90%
Nc1nnc(C2CCCCC2)s1 [CBK039123] | 84.5%
CCC(C)C(=O)N1CCC(c2nnc3n2CCCCC3)CC1 (stereo not shown) [CBK282260] | 85.4%
Cc1nc(-c2ccc(S(=O)(=O)NCC3CC3)s2)cs1 [CBK085873] | 83.9%
COc1cc(/C=N/NC(=O)CCn2c3ccc(Cl)cc3c3cc(Cl)ccc32)ccc1O [CBK262351] | 112%
COC(=O)Nc1ncc(CN2CCc3ccccc3C2)s1 [CBK268376] | 97.5%
COc1cc(/C=C(/C#N)c2ccc(C(=O)O)cc2)cc(Br)c1OCC(=O)O [CBK268956] | 92.3%
CC1CCCC(C)N1C(=O)Cn1ncc2cccn2c1=O (stereo not shown) [CBK283680] | 101%
Cc1nn(CC(=O)NC(C)C)c(=O)c2cc3sccc3n12 [CBK284048] | 104%
CC(C)c1ccc(N2C(=O)N[C@@H]3CCN(S(=O)(=O)c4ccccc4)[C@@H]3C2=O)cc1 [CBK289289] | 114%
O=C(Nc1ccccc1Cl)Nc1[nH]nc(O)c1Cc1c(Cl)cccc1Cl [CBK089367] | 113%
COc1ccc(C(=O)N2CCC3(CCCN(C(=O)c4cccnc4)C3)C2)cc1OC (stereo not shown) [CBK131668] | 97.8%
CCn1c(C)nc2cc(Cl)c(Cl)cc21 [CBK115577] | 89.3%
CN1CCC(=NNC(=O)c2cc(O)c(O)c(O)c2)CC1 [CBK262660] | 78.6%
COc1cccc([C@H]2CN(C(=O)c3ccccc3)[C@@H]3CCN(Cc4ccsc4)C[C@H]23)c1 [CBK285611] | 104%
O=C(CSc1nnc2ccc(-c3ccccc3)nn12)N1CCCCC1 [CBK287678] | 100%
N#Cc1ccc(-c2cnc(N)c(-c3ccc(NC(=O)CCN4CCCCC4)cc3)n2)cc1 [CBK116418] | 85%
Cc1nn(-c2ccccc2)c(CN2C(=O)NC3(CCCC3)C2=O)c1C#N [CBK305572] | 81.4%
Cc1nc2sccn2c1CN1CCCC(C(=O)N2CCOCC2)C1 (stereo not shown) [CBK305390] | 97.6%

SMILES | viability at 28.5 h, 10 µM
CCCN1CCC(CNC(=O)c2cc(C3CC3)nn2C)CC1 [CBK282536] | 101%
Cc1c(Cl)cccc1NC(=O)c1cnc2scc(C)n2c1=O [CBK287463] | 117%
COc1ccc(CNC(=O)N2CCCCC2CO)cc1OC (stereo not shown) [CBK155981] | 92.8%
COc1cc2c(cc1OC)C1c3ccccc3N(Cc3ccccc3)C(=O)N1CC2 (stereo not shown) [CBK286192] | 86.8%
O=C(O)c1cccc(CSc2nc3ccccc3o2)c1 [CBK270193] | 91.7%
COCCN1CCN(C(=O)NCCc2c(C)[nH]c3ccc(Cl)cc23)CC1 [CBK307637] | 85%
CC(=O)Nc1ccc(NC(=O)CCCC(=O)O)cc1 [CBK260984] | 104%
CCN1CCN(S(=O)(=O)c2cccc([N+](=O)[O-])c2)CC1 [CBK266675] | 83.8%
O=C(O)c1ccc(CN2C[C@H](O)C[C@H]2c2nc(-c3ccccn3)no2)cc1 [CBK288869] | 90%
Cc1cc(C)c2oc(-c3ccc(Cl)c(NC(=O)Cc4ccc(Cl)cc4)c3)nc2c1 [CBK264695] | 97.8%
COc1ccc(Br)cc1/C=N/NC(=O)C1CC(c2ccccc2)(c2ccccc2)C1 [CBK263218] | 88.8%
CCC1CCCCN1Cc1nc2c(c(=O)n(C)c(=O)n2C)n1CCOC (stereo not shown) [CBK305912] | 104%
COc1ccc(C(=O)c2c(N)c(C(=O)Nc3ccccc3)c3ccccn23)cc1 [CBK300509] | 92.6%
O=C(Cn1cccc(C(=O)NCc2ccccc2)c1=O)NC1(c2ccccc2)CCCC1 [CBK286058] | 89.1%
O=C(Nc1cccc(O)c1)c1ccc(NC(=O)C2CCCO2)cc1 (stereo not shown) [CBK269746] | 91.6%
CC(=O)Nc1ccc(NC(=O)Cc2n[nH]c(=S)n2Cc2ccccc2)cc1 [CBK296754] | 91.1%
COc1cc(C)nc(NCc2cnn(C)c2C)n1 [CBK306277] | 85.4%
Cc1cc(C)nc(N2CCC(CC(=O)N3CCCCC3CN3CCCC3)CC2)n1 (stereo not shown) [CBK286254] | 95.6%
c1ccc(-n2ncc3c(NCc4cccnc4)ncnc32)cc1 [CBK265528] | 85.2%
O=c1[nH]c(/C=C\c2cccc(OCCOc3ccccc3)c2)c([N+](=O)[O-])c(=O)[nH]1 [CBK266840] | 105%
CN(C)C(=O)c1ccc(-c2ncc(OCCN3CCOCC3)nc2N)cc1 [CBK145183] | 93.1%
Cc1c(Cl)cccc1S(=O)(=O)Nc1c(C(=O)N2CCOCC2)[nH]c2ccccc12 [CBK050076] | 109%

SMILES | viability at 28.5 h, 10 µM
O=P(O)(CN1CCCCCC1)CN1CCCCCC1 [CBK262311] | 92.1%
Cn1c(SCC(=O)Nc2cccc(C(=O)O)c2)nnc1-c1ccccc1 [CBK300479] | 96.1%
Nc1nc(O)cc(C2CCN(CCOc3ccccc3F)C2)n1 (stereo not shown) [CBK304726] | 102%
NS(=O)(=O)c1cccnc1NCc1ccccc1 [CBK288448] | 85.7%
CN1CCC(Cc2nc(-c3ccc(Cl)s3)n(CCO)n2)CC1 [CBK307025] | 100%
O=C(CC1NC(=O)NC1=O)Nc1ccc(C(=O)O)cc1 (stereo not shown) [CBK267355] | 99.1%
COc1ccc(S(=O)(=O)Nc2ccc3oc4c(c3c2)CC(C)CC4)cc1[N+](=O)[O-] (stereo not shown) [CBK266131] | 94.3%
Cc1ccc(C(=O)N2C[C@H]3NC(=O)c4ccccc4C(=O)[C@@]3(C)C2)cc1 [CBK285315] | 87.6%
O=C(Nc1ccc2oc(-c3cccnc3)nc2c1)c1ccc(-c2ccc(OC(F)(F)F)cc2)o1 [CBK107713] | 101%
O=C(COc1cccnc1)NCc1ccc(-c2csnn2)cc1 [CBK149312] | 93.1%
O=C(CC12CC3CC(CC(C3)C1)C2)NCC(=O)Nc1ccc2[nH]c(=O)[nH]c2c1 [CBK295349] | 85.3%
COc1ccc(C(NC(=O)N2CCN(C(=O)NCc3ccccc3Cl)CC2)c2ccccc2C)cn1 (stereo not shown) [CBK081471] | 88.7%
COc1ccccc1C1(NC(=O)c2cnsc2)CCCC1 [CBK283643] | 84.5%
c1ccc(SCCN2CCOCC2)cc1 [CBK027679] | 97.8%
Nc1nnc(Cn2c(-c3nonc3N)nc3ccccc32)s1 [CBK263854] | 117%
CC(NC(=O)Cc1ccc(-c2ccccc2)cc1)c1cccnc1 (stereo not shown) [CBK295147] | 95%
CC(C)(C)c1n[nH]c(C2CN(C(=O)CCc3cscn3)CCO2)n1 (stereo not shown) [CBK305205] | 89.7%
Cc1ccc(NC(=O)c2cc(C(=O)Nc3ccc(C)c(C)c3)cc(N3C(=O)c4ccccc4C3=O)c2)cc1C [CBK261328] | 93.8%
O=C(c1cscn1)N1CCCC(n2cnc3cc(F)ccc32)C1 (stereo not shown) [CBK284477] | 90.8%
CCc1[nH]ncc1C(=O)N1CCN(c2nccc(OC)n2)CC1 [CBK304915] | 86.4%
OCCN1CCN(CC(O)COc2ccc(Cl)cc2Cl)CC1 (stereo not shown) [CBK278198C] | 108%
COC(=O)CN1C(=O)CC2(C1=O)C(=O)N(Cc1ccccc1)c1ccc(F)cc12 (stereo not shown) [CBK075143] | 95.7%
